The values below come from patent US20100183692A1, “COMPOSITIONS” (priority 2007, published 2010).

Entries after “also recorded” stand apart in the source; their conditions may differ.

Common to all, as to type: cell-based
Test [1] relates to Aspergillus niger ATCC 16404 spores. Briefly: Sporicidal effect of a) and b) compounds in a cosmetic cream. The settings on record: for Reduction factor: cosmetic cream. As for the experimental part:
A preservative-free cosmetic cream for application to the human skin is used (Cremor basalis, Fagron GmbH, Barsbüttel, Germany).
Test samples of cream contain different amounts of compounds a) and b) added to an aliquot of 10 g of the cream in 50 ml tubes to give a concentration (w/w) of 0.125-0.25% as shown in the table below. After addition of the compounds a) and b), the cream is thoroughly mixed to achieve a homogeneous distribution.
After 1-3 days of equilibration of the cream (storage at room temperature to achieve a homogenous partitioning of compounds between oil and water phase), to each sample 100 μl of a spore suspension of Aspergillus niger ATCC 16404 containing 3×10^7 spores/ml (prepared as described in example 1) is added. After regular test intervals (7 days), samples of 1 g cream are removed and added to 20 ml of a neutralizer solution containing 0.2% lecithin, 2% Tween 80 and 0.5% NaCl. These dilutions are vigorously shaken for 10 min until the cream is dissolved, and then aliquots of this solution are spread plated on potato dextrose agar containing 0.2% Tween 80. After a sufficient time for colonies to grow (about 48 h), the number of colony forming units (and therefore surviving spores in the cream) are counted.

In test [2] the test system is Staphylococcus aureus (DSMZ 799) and Pseudomonas aeruginosa (ATCC 15442), mixed 1:1. Briefly: Bactericidal effect of a) and b) compounds in a cosmetic cream. The procedure: Test samples of the same cream used in Example 2 contain different amounts of compounds a) and b) added to an aliquot of 10 g of the cream in 50 ml tubes to give a concentration (w/w) of 0.125-0.25% as shown in the table below. After addition of the compounds a) and b), the cream is thoroughly mixed to achieve a homogeneous distribution.
As test organisms Staphylococcus aureus (DSMZ 799) and Pseudomonas aeruginosa (ATCC 15442) are used. The strains are grown overnight in Mueller-Hinton broth and adjusted to a cell density of 1×10^8 cfu (colony forming units) per ml.
The two bacterial strains are mixed in a ratio of 1:1 and 100 μl of this mixed inoculum is added to 10 ml aliquots of the cosmetic cream.
The resulting mixtures are incubated at room temperature and at the regular intervals samples are removed, suspended in neutralizer solution and diluted as described above (example 2).
Aliquots of these suspended and diluted samples are plated on tryptic soy agar supplemented with 0.5% Tween 80 and then incubated for 24 h at 37° C. Surviving bacteria are counted.

Test [3] concerns Aspergillus niger ATCC 16404 spores. Briefly: Sporicidal effect of test compounds in water. The settings on record: for Spores/ml / Reduction factor: 0.1% test compound in water, after 7 days; for Reduction factor: count of negative control divided by count of test compound; for Reduction of spore counts / sporicidal effect in water (in words): 0.1% test compound, 7 days. As for the experimental part:
The reduction factor is determined by growing a suitable test organism (Aspergillus niger for fungi, Pseudomonas aeruginosa for gram-negative bacteria and Staphylococcus aureus for gram-positive bacteria) on a suitable culture medium on agar plates, harvesting and adding to a personal care product composition in a density of 3×10^5 organism/ml and counting the surviving organisms in the probe and a negative control at defined time interval, commonly 7 days. The count of the negative control is divided by the count of the probe and thereby the reduction factor is determined (compare example 1).
Aspergillus niger ATCC 16404 spores are added to water to obtain a density of 3×10^5 spores 1 ml. In order to prepare the spores, the test strain is grown for 5 days on potato dextrose agar at room temperature. The spores are harvested with a solution containing 0.1% Tween 80, peptone 0.1% and NaCl 0.85% and the spore concentration is adjusted to the density indicated above.
Test compounds are dissolved in dipropyleneglycol to a concentration of 20%.
These stock solutions are added to 10 ml aliquots of the spore suspension to obtain a final concentration of the test compounds of 0.1%. The sporicidal effect is shown by a reduction of spore counts after 7 days.
The reduction factor is determined as follows. Aliquots of the above prepared suspension of microorganisms (here: spore suspension prepared as described above) are plated on a suitable agar medium (see above) and the developing colonies are counted both for samples with test compound and for a negative probe (water). The count of the negative control is divided by the count of the test compound and thereby the reduction factor is determined. A negative control (water) accordingly has a reduction factor of 1 (no effect on the microorganism).

Setting [4] is: fragrant acid (sodium salt) 0.125% w/w, 4-HBA 0, after 7 days.
[5] abbreviates: fragrant acid (sodium salt) 0.250% w/w, 4-HBA 0, after 7 days.
The mark [6] stands for this setting: fragrant acid (sodium salt) 0.125% w/w, 4-HBA 0, after 24 h.
Setting [7] is: fragrant acid (sodium salt) 0.250% w/w, 4-HBA 0, after 24 h.

`COc1ccc(C(=O)O)cc1` [Anisic acid, anisic acid]: the Reduction factor was found to be 1.4 in test [1] (setting [4]), 12.5 in test [1] (setting [5]), 1 in test [2] (setting [6]) and 5 in test [2] (setting [7]).
Turning to `O=Cc1ccc(O)cc1` [4-hydroxybenzaldehyde], the “Sporicidal activity in cream (in words)” value in test [1] (combined with cinnamic acid or anisic acid in cream at 0.125% concentration, within 7 days) is “complete killing of spores”. Further, the Reduction factor is on record as 5.5 in test [1] (no fragrant acid, 4-HBA 0.125% w/w, after 7 days); 10 in test [2] (no fragrant acid, 4-HBA 0.125% w/w, bacterial counts after 24 h); less than 2 in test [3]. Moreover, the Spores/ml in test [3] was >1.2 × 10^5 Spores/ml. For the same compound, the “Reduction of spore counts / sporicidal effect in water (in words)” value in test [3] is on record as “no significant sporicidal effect; also recorded: No significant reduction of spore counts”.
`COc1ccc(C=O)cc1` [4-methoxy-benzaldehyde, 4-methoxybenzaldehyde]: in test [3], the Spores/ml is 4.68 × 10^4 Spores/ml, the Reduction factor is given as 5 and the “Reduction of spore counts / sporicidal effect in water (in words)” value is given as “No significant reduction of spore counts”.
As for `O=C(O)/C=C/c1ccccc1` [Cinnamic acid, cinnamic acid], the Reduction factor in test [1] (setting [4]) was 1.0; in test [1] (setting [5]), 1.1; in test [2] (setting [6]) it was 2.0; in test [2] (setting [7]), 10.
